Results from patent US20210355106A1, “NEW AMINO-PYRIMIDONYL-PIPERIDINYL DERIVATIVES, A PROCESS FOR THEIR PREPARATION AND PHARMACEUTICAL COMPOSITIONS CONTAINING THEM” (LES LABORATOIRES SERVIER, priority 2018, published 2021).
Structures can show the parent of a compound that is named as a salt.

Molecular target: T1, USP7 (Homo sapiens, UniProt Q93009, C315A)
T1 construct: 0.25 nM His-His-USP7 (aa208-560, |C315A|) was incubated with compound; His-His (N)
Assay: Inhibition of USP7 by Fluorescence Intensity (FLINT) readings, Ubiquitin-Rhodamine-110 substrate
Assay type: biochemical
Settings: 0.25 nM His-His-USP7 (aa208-560), 60 minutes at 30° C. preincubation; Ki determined from IC50 according to Cer et al.
Method: USP7 activity was measured using Rhodamine-110 c-terminal labelled Ubiquitin as a substrate (UbiQ Bio), Incubation with USP7 results in the release of Rhodamine-110 leading to an increase in fluorescence which can be used in the continuous measurement of USP7 activity.
The USP7 reactions were performed in a 50 μL volume, in 384 well black solid low binding plates (Corning #3575). The reaction buffer consisted of 100 mM Bicine pH 8.0, 0.01% TritonX 100, 1 mM TCEP, and 10% DMSO.
0.25 nM His-His-USP7 (aa208-560, |C315A|) was incubated with compound (final concentration 10% DMSO) for 60 minutes at 30° C. The reaction was then initiated by the addition of 50) nM Ubiquitin-Rhodamine-110 substrate or 4 μM Ubiquitin-Rhodamine-110 substrate and the plate read every 3 minutes for 21 minutes to measure the release of Rhodamine-110. Fluorescence Intensity (FLINT) readings were measured using a Biomek Neo plate reader (Ex.485 nm, Em.535 nm).
The inhibition of increasing doses of compound was expressed as a percentage reduction in kinetic rate compared to the kinetic rates established between ‘DMSO only’ and ‘total inhibition’ controls (no USP7). The inhibitory concentrations that gave a 50% reduction in kinetic rate (IC50) were determined, from 11-point dose response curves, in XL-Fit using a 4-Parameter Logistic Model 205 (Sigmoidal Dose-Response Model). The K, values were determined from the IC50 values according to Cer et al. Nucleic Acids Res. 2009, July 1; 37 (WebServer issue): W441-W445.

T1 sequence (Q93009 208-560 C315A): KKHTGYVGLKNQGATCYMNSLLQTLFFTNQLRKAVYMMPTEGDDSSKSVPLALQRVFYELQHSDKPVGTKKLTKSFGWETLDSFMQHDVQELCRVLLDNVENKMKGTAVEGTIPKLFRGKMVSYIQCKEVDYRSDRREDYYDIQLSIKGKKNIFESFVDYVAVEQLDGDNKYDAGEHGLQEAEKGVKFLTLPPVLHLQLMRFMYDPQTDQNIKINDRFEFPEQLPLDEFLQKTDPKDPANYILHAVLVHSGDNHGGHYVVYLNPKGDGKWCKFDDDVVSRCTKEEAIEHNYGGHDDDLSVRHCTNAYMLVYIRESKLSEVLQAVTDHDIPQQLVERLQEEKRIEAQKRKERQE

Question: How did the Ki turn out when COc1cc(Oc2ncn(C[C@@]3(O)CCN(C(=O)[C@@H]4CCN(Cc5ccncn5)C[C@H]4c4ccccc4)CC3(F)F)c(=O)c2N)ccc1F [Example 220, 5-amino-3-[[(4S)-3,3-difluoro-4-hydroxy-1-[(3R,4R)-3-phenyl-1-(pyrimidin-4-ylmethyl)piperidine-4-carbonyl]-4-piperidyl]methyl]-6-(4-fluoro-3-methoxy-phenoxy)pyrimidin-4-one] was run?
Answer: Its Ki is 98.2 nM.

Question: With Nc1c(Oc2ccc(F)cc2)ncn(CC2(O)CCN(C(=O)[C@@H]3CCN(C(=O)NCC(F)(F)F)C[C@H]3c3ccccc3)CC2)c1=O [Example 90] as the compound, how does the Ki read?
Answer: Its Ki is 345 nM.

Question: COc1ccc(C2(N3CC[C@@H](C(=O)N4CCC(O)(Cn5cnc(Oc6ccc(F)cc6)c(N)c5=O)CC4)[C@H](c4ccccc4)C3)COC2)cc1 [Example 156, 5-amino-6-(4-fluorophenoxy)-3-[[4-hydroxy-1-[(3R,4R)-1-[3-(4-methoxyphenyl)oxetan-3-yl]-3-phenyl-piperidine-4-carbonyl]-4-piperidyl]methyl]pyrimidin-4-one] was tested. Which Ki did it give?
Answer: The Ki was 140 nM.

Question: Which Ki does the source give for COc1cc(Cl)cc(Oc2ncn(CC3(O)CCN(C(=O)[C@@H]4CCNC[C@H]4c4ccccc4)CC3)c(=O)c2N)c1 [Example 15] here?
Answer: Its Ki is 286 nM.

Question: How did the Ki turn out when Nc1c(Oc2ccc(F)cc2)ncn(C[C@@]2(O)CCN(C(=O)[C@@H]3CCN(C(=O)C4CC(c5ccccc5)C4)C[C@H]3c3ccccc3)CC2(F)F)c1=O (single isomer, unassigned) [Example 72] was run?
Answer: Its Ki is 235 nM.

Question: COc1cc(Oc2ncn(CC3(O)CCN(C(=O)[C@@H]4CCN(C(=O)OC(C)(C)C)C[C@H]4c4ccccc4)CC3)c(=O)c2N)ccc1F [Example 4, tert-butyl (3R,4R)-4-[4-[[5-amino-4(4-fluoro-3-methoxy-phenoxy)-6-oxo-pyrimidin-1-yl]methyl]-4-hydroxy-piperidine-1-carbonyl]-3-phenyl-piperidine-1-carboxylate] was tested. Which Ki did it give?
Answer: Its Ki is 115 nM.

Question: With Nc1c(Oc2ccc(F)cc2)ncn(CC2(O)CCN(C(=O)[C@@H]3CCNC[C@H]3c3ccccc3)CC2)c1=O [Example 21, 5-amino-6-(4-fluorophenoxy)-3-[[4-hydroxy-1-[(3R,4R)-3-phenylpiperidine-4-carbonyl]-4-piperidyl]methyl]pyrimidin-4-one] as the compound, how does the Ki read?
Answer: Its Ki is 103 nM.

Question: For Nc1c(Oc2ccc(Cl)cc2)ncn(CC2(O)CCN(C(=O)[C@@H]3CCNC[C@H]3c3ccccc3)CC2)c1=O [Example 14, 5-amino-6-(4-chlorophenoxy)-3-[[4-hydroxy-1-[(3R,4R)-3-phenylpiperidine-4-carbonyl]-4-piperidyl]methyl]pyrimidin-4-one hydrochloride], which Ki is on record?
Answer: The Ki was 115 nM.

Question: How did the Ki turn out when Nc1c(Oc2ccc(Cl)c(F)c2)ncn(CC2(O)CCN(C(=O)[C@@H]3CCNC[C@H]3c3ccccc3)CC2)c1=O [Example 16] was run?
Answer: The Ki was 232 nM.

Question: For CC(C)(C)OC(=O)N1CC[C@@H](C(=O)N2CCC(O)(Cn3cnc(Oc4ccccc4)c(N)c3=O)CC2)[C@H](c2ccccc2)C1 [Example 7, tert-butyl (3R,4R)-4-[4-[(5-amino-6-oxo-4-phenoxy-pyrimidin-1-yl)methyl]-4-hydroxy-piperidine-1-carbonyl]-3-phenyl-piperidine-1-carboxylate], which Ki is on record?
Answer: Its Ki is 137 nM.

Question: Which Ki does the source give for Nc1c(Oc2ccccc2)ncn(CC2(O)CCN(C(=O)[C@@H]3CCN(C4(c5ccc(F)cc5)COC4)C[C@H]3c3ccccc3)CC2)c1=O [Example 115] here?
Answer: The Ki was 418 nM.

Question: For CC(C)C1(N2CC[C@@H](C(=O)N3CCC(O)(Cn4cnc(Oc5ccc(F)cc5)c(N)c4=O)CC3)[C@H](c3ccccc3)C2)COC1 [Example 112, 5-amino-6-(4-fluorophenoxy)-3-[[4-hydroxy-1-[(3R,4R)-1-(3-isopropyloxetan-3-yl)-3-phenyl-piperidine-4-carbonyl]-4-piperidyl]methyl]pyrimidin-4-one], which Ki is on record?
Answer: The Ki was 203 nM.

Question: With CC(C)(C)OC(=O)N1CC[C@@H](C(=O)N2CCC(O)(Cn3cnc(Oc4cccc(C(F)(F)F)c4)c(N)c3=O)CC2)[C@H](c2ccccc2)C1 [Example 5, tert-butyl (3R,4R)-4-[4-[[5-amino-6-oxo-4-[3-(trifluoromethyl)phenoxy]pyrimidin-1-yl]methyl]-4-hydroxy-piperidine-1-carbonyl]-3-phenyl-piperidine-1-carboxylate] as the compound, how does the Ki read?
Answer: Its Ki is 299 nM.

Question: How did the Ki turn out when Nc1c(Oc2cccc(OC(F)(F)F)c2)ncn(CC2(O)CCN(C(=O)[C@@H]3CCNC[C@H]3c3ccccc3)CC2)c1=O [Example 19, 5-amino-3-[[4-hydroxy-1-[(3R,4R)-3-phenylpiperidine-4-carbonyl]-4-piperidyl]methyl]-6-[3-(trifluoromethoxy)phenoxy]pyrimidin-4-one hydrochloride] was run?
Answer: The Ki was 344 nM.

Question: How did the Ki turn out when COc1cc(Oc2ncnc(OC[C@@]3(O)CCN(C(=O)[C@@H]4CCN(C(=O)OC(C)(C)C)C[C@H]4c4ccccc4)CC3(F)F)c2N)ccc1F [Example 135] was run?
Answer: Its Ki is 206 nM.

Question: Which Ki does the source give for COc1ccc(NC(=O)N2CC[C@@H](C(=O)N3CCC(O)(Cn4cnc(Oc5ccc(F)cc5)c(N)c4=O)CC3)[C@H](c3ccccc3)C2)c(OC)c1 [Example 82] here?
Answer: The Ki was 16 nM.

Question: CC(C)(C)OC(=O)N1CC[C@@H](C(=O)N2CCC(O)(Cn3cnc(Oc4ccc(Cl)cc4)c(N)c3=O)CC2)[C@H](c2ccccc2)C1 [Example 1, tert-butyl (3R,4R)-4-[4-[[5-amino-4-(4-chlorophenoxy)-6-oxo-pyrimidin-1-yl]methyl]-4-hydroxy-piperidine-1-carbonyl]-3-phenyl-piperidine-1-carboxylate] was tested. Which Ki did it give?
Answer: Its Ki is 103 nM.

Question: How did the Ki turn out when CC(C)(C)OC(=O)N1CC[C@@H](C(=O)N2CCC(O)(Cn3cnc(Oc4cccc(OC(F)(F)F)c4)c(N)c3=O)CC2)[C@H](c2ccccc2)C1 [Example 6] was run?
Answer: The Ki was 398 nM.

Question: With CC(C)(C)OC(=O)N1CC[C@@H](C(=O)N2CCC(O)(Cn3cnc(Oc4ccc(F)cc4)c(N)c3=O)CC2)[C@H](c2ccccc2)C1 [Example 8, tert-butyl (3R,4R)-4-[4-[[5-amino-4-(4-fluorophenoxy)-6-oxo-pyrimidin-1-yl]methyl]-4-hydroxy-piperidine-1-carbonyl]-3-phenyl-piperidine-1-carboxylate] as the compound, how does the Ki read?
Answer: The Ki was 131 nM.

Question: For COc1cc(Oc2ncn(CC3(O)CCN(C(=O)[C@@H]4CCNC[C@H]4c4ccccc4)CC3)c(=O)c2N)ccc1F [Example 17, 5-amino-6-(4-fluoro-3-methoxy-phenoxy)-3-[[4-hydroxy-1-(3R,4R)-3-phenylpiperidine-4-carbonyl]-4-piperidyl]methyl]pyrimidin-4-one hydrochloride], which Ki is on record?
Answer: Its Ki is 116 nM.

Question: How did the Ki turn out when Nc1c(Oc2ccc(F)cc2)ncn(CC2(O)CCN(C(=O)[C@@H]3CCN(C(=O)c4cccc(C5CCCNC5)c4)C[C@H]3c3ccccc3)CC2)c1=O (stereo partly drawn) [Example 116, 5-amino-6-(4-fluorophenoxy)-3-[(4-hydroxy-1-((3R,4R)-3-phenyl-1-[3-(piperidin-3-yl)benzoyl]piperidine-4-carbonyl}piperidin-4-yl)methyl]pyrimidin-4(3H)-one] was run?
Answer: Its Ki is 8 nM.

Question: For CC(C)(C)OC(=O)N1CC[C@@H](C(=O)N2CC[C@](O)(Cn3cnc(Oc4ccccc4)c(N)c3=O)C(F)(F)C2)[C@H](c2ccccc2)C1 [Example 9, tert-butyl (3R,4R)-4-[(4S)-4-[(5-amino-6-oxo-4-phenoxy-pyrimidin-1-yl)methyl]-3,3-difluoro-4-hydroxy-piperidine-1-carbonyl]-3-phenyl-piperidine-1-carboxylate], which Ki is on record?
Answer: The Ki was 82.5 nM.

Question: How did the Ki turn out when CC(C)(C)OC(=O)N1CC[C@@H](C(=O)N2CC[C@](O)(Cn3cnc(Oc4ccc(F)cc4)c(N)c3=O)C(F)(F)C2)[C@H](c2ccccc2)C1 [Example 10] was run?
Answer: The Ki was 104 nM.

Question: For Nc1c(Oc2ccc(F)cc2)ncn(CC2(O)CCN(C(=O)[C@@H]3CCN(C(=O)c4ccc5nc[nH]c(=O)c5c4)C[C@H]3c3ccccc3)CC2)c1=O [Example 57, 6-[(3R,4R)-4-(4-t[5-amino-4-(4-fluorophenoxy)-6-oxopyrimidin-[(6N)-yl]methyl}-4-hydroxypiperidine-1-carbonyl)-3-phenylpiperidine-1-carbonyl]quinazolin-4(3n)-one], which Ki is on record?
Answer: The Ki was 5.1 nM.

Question: How did the Ki turn out when CC(C)(C)OC(=O)N1CC[C@@H](C(=O)N2CCC(O)(Cn3cnc(Oc4ccc(Cl)c(F)c4)c(N)c3=O)CC2)[C@H](c2ccccc2)C1 [Example 3, tert-butyl (3R,4R)-4-[4-[[5-amino-4-(4-chloro-3-fluoro-phenoxy)-6-oxo-pyrimidin-1-yl]methyl]-4-hydroxy-piperidine-1-carbonyl]-3-phenyl-piperidine-1-carboxylate] was run?
Answer: Its Ki is 125 nM.

Question: For COc1cc(Cl)cc(Oc2ncn(CC3(O)CCN(C(=O)[C@@H]4CCN(C(=O)OC(C)(C)C)C[C@H]4c4ccccc4)CC3)c(=O)c2N)c1 [Example 2, tert-butyl (3R,4R)-4-[4-[[5-amino-4-(3-chloro-5-methoxy-phenoxy)-6-oxo-pyrimidin-1-yl]methyl]-4-hydroxy-piperidine-1-carbonyl]-3-phenyl-piperidine-1-carboxylate], which Ki is on record?
Answer: The Ki was 191 nM.

Question: For Nc1c(Oc2ccc(F)cc2)ncn(CC2(O)CCN(C(=O)[C@@H]3CCN(C4(c5ccc(F)cc5)COC4)C[C@H]3c3ccccc3)CC2)c1=O [Example 110, 5-amino-6-(4-fluorophenoxy)-3-[[1-[(3R,4R)-1-[3-(4-fluorophenyl)oxetan-3-yl]-3-phenyl-piperidine-4carbonyl]-4-hydroxy-4-piperidyl]methyl]pyrimidin-4-one], which Ki is on record?
Answer: The Ki was 182 nM.
